Measured values reported in US20030166537A1, “Use of GDNF for treating corneal defects” (Biopharm Gesellschaft Zur Biotechnologischen Entwicklung …, priority 1999, published 2003).

Legend:
[1] = system: primary rabbit corneal epithelial cells; assay: single cell clonal growth assay (colony formation, clonal proliferation); type: cell-based; conditions: 10 ng/ml; day 6; control 40±20
Source text: In order to evaluate the effect of GDNF on corneal proliferation, recombinant human GDNF was used (R&D, Minneapolis, Minn., USA). For the evaluation of the effect on corneal epithelial proliferaton a single cell clonal growth model was utilized which allows to determine the effect of the given growth factor on both colony formation as well as clonal expansion (Kruse et al., 1991). New Zealand white rabbits were housed and treated according to the ARVO Resolution of Animals in Research and under observation of German Federal Laws and the laws of the State of Baden-Württemberg. Prior to sacrifice with an intravenous overdose of pentobarbital, they received an intramuscular injection of xylazine hydrochloride and ketamine hydrochloride. The details of the clonal growth assay are described in Kruse et al. (1991). 5000 viable cells were seeded in each 16 mm dish in serum-free medium MCDB 151 with a supplement (S) of insulin (5 μg/ml), transferrin (5 μg/ml), selenium (5 ng/ml) and hydrocortisone (5 μg/ml) (all from Sigma, Deisenhofen, Germany). […] This quantification was facilitated by the use of dishes which contained a grit on the bottom which is roughly 2 mm wide (from Sarstedt, Newton, N.C., USA). For data collection the entire surface area of four randomly selected dishes for each condition was screened. Furthermore, the number of cells per colony was determined in 75 randomly selected colonies for each condition. Furthermore, the total number of cells/dish was calculated in order to carry out an evaluation for artemin. In order to stimulate the cellular proliferation, GDNF (50 or 200 ng/ml) or artemin (250 ng/ml) was added to the medium. In order to estimate the rate of proliferation after 12 days (a time when neighbouring colonies started to grow into each other and, therefore, prevented numerical quantification) dishes were fixed in −20° C. methanol and stained with methylene blue.
All experiments examining the effect of GDNF on corneal proliferation were performed in triplicate with cells from different donors. The influence of growth factor on colony formation, colony size and cell number was studied using one-way analysis of variance. […] Student's t-test was employed to determine which differences were significant after analysis of variance.

[2] = system: primary human corneal epithelial cells; assay: in vitro wound healing assay (scratch wound), primary cells; type: cell-based; conditions: 18 h, control less than 10%
Description: (§1) For in vitro wound healing assays primary corneal epithelial cells and cells from the corneal epithelial cell line were seeded at a density of 5×10^5 onto 60 mm plastic dishes with 2 mm grid (Sarstedt, Numbrecht, Germany) and cultured for 2 days until subconfluency. For experiments with artemin primary cultured rabbit corneal epithelial cells were used. These cells had been isolated with Dispase (1,2 U/ml) and trypsin/EDTA. Rabbit cells had been cultured in medium 500 with additives (Cascade Biologies).
(§2) The cell layer was injured under the microscope by inducing several parallel scratches with a soft plastic cell scrubber (Falcon, Becton and Dickinson, Heidelberg, Germany). The tip of the scrubber was cut and measured about 1 mm and consequently the width of the scratch in the cell layer was also about 1 mm. Selected areas in the dishes were marked with a very fine marker pen and consecutive images were taken at different time points at 5×magnification under an inverted phase contrast microscope (Axiovert 25, Zeiss, Jena, Germany) equipped with a video camera. Following the experimental injury dishes were incubated in SHEM medium either containing no growth factors (control) or containing either GDNF (250 ng/ml) (recombinant human GDNF expressed in E. coli), NGF (250 ng/ml) (Boehringer Mannheim, Germany) or EGF ([…]). For experiments investigating artemin cells were cultured in medium 500 without additives and 250 ng artemin was added. For each condition four representative areas were evaluated within three dishes. The mean diameter of the scratch in each representative area was set as 100% at the beginning of the experiment. 18 hours later the mean diameter of the same scratch was calculated again and expressed in percent of the diameter at the beginning of the experiment.

[3] = system: corneal epithelial cells from the SV40 transformed cell line; assay: in vitro wound healing assay (scratch wound), cell line; type: cell-based, human; conditions: 18 h, control 20%±4.5
Description: as §1, §2

[4] = system: primary rabbit corneal epithelial cells; assay: in vitro wound healing assay (scratch wound), artemin; type: cell-based; conditions: 10 ng/ml; within 6 h; vs control
Description: as §1
(§3) The cell layer was injured under the microscope by inducing several parallel scratches with a soft plastic cell scrubber (Falcon, Becton and Dickinson, Heidelberg, Germany). The tip of the scrubber was cut and measured about 1 mm and consequently the width of the scratch in the cell layer was also about 1 mm. Selected areas in the dishes were marked with a very fine marker pen and consecutive images were taken at different time points at 5×magnification under an inverted phase contrast microscope (Axiovert 25, Zeiss, Jena, Germany) equipped with a video camera. […] For each condition four representative areas were evaluated within three dishes. […] 18 hours later the mean diameter of the same scratch was calculated again and expressed in percent of the diameter at the beginning of the experiment.

Ret = target: T1, Ret (Homo sapiens, UniProt P07949); assay: immuno-precipitation and western blot of tyrosine-phosphorylated Ret in cultured corneal epithelial cells; type: cell-based; conditions: cells pretreated with herbimycin A, then GDNF 10 minutes
T1 construct: The level of phosphorylated Ret (approximately 150 kD) in cultured corneal epithelial cells (control) was low prior to addition of GDNF; endogenous in cells; host or cells: SV40-transformed human corneal epithelial cell line (Araki-Sasaki et al., 1995)

[5] = system: FAK, Pyk2, cRaf, MEK1, Erk 1 and 2, Elk, RSK; assay: western blot of phosphorylated intracellular signaling proteins in corneal epithelial cells; type: cell-based, human; conditions: preincubation with herbimycin A for two hours
Description: In order to investigate which protein kinase cascades are activated by GDNF and artemin, corneal epithelial cells from the cell line were seeded at a density of 5×10^5 cells/75 cm^2 and cultured in SHEM with 10% FBS for one day. Cultures were then washed with PBS and incubated in serum-free SHEM without additives or with GDNF (200 ng/ml) or with artemin (250 ng) for 10 to 40 minutes. After washing with PBS, cultured cells were solubilized in lysis buffer containing 50 mM Tris2Cl (pH8.0), 150 mM NaCl, 0.02% sodium azide, 100 μg/ml phenylmethylsulfonyl fluoride, 1 mM Na3VO4, 1% Triton X-100 and a mixture of several protease inhibitors [complete™, Boehringer Mannheim (1 tablet/30 ml buffer)]. 80 μg total protein per lane was fractionated by NuPAGE 10% SDS-MOPS-Bis-Tris gel or NuPAGE 3-8% Tris-acetate gel (all from NOVEX, San Diego, Calif.) and blotted onto a nitrocellulose membrane. Phosphorylated proteins were detected with phospho-specific antibodies and visualized with the ECL western blot analysis system (Amersham). Antibodies against phospho-Raf(ser259), phospho-MEK1/2(ser217/221), phospho-MAPK (Erk1/2) (thr202/tyr204), phospho-p90 ribosomal S6 kinase (RSK) (ser381) and phospho-Elk-1(ser383) were obtained from New England Biolabs (Beverly, Mass.). Antibody against phospho-FAK (tyr397/tyr407/tyr576/tyr577/tyr861/tyr925) and phospho-Pyk2 (tyr402/tyr579/tyr/580/tyr881) were purchased from Biosource (Camarillo, Calif., USA). A monoclonal antibody against phospho-tyrosine came from Sigma (Deisenhofen, Germany).

corneal epithelial cells = assay: in vitro wound healing model with herbimycin A; type: cell-based; conditions: 10 μM Herbimycin A in presence of 250 ng/ml GDNF; 18 hours
Description: as §1
as §3, with “experiment. […]” for “experiment.”

[6] = system: ERK1, ERK2, JNK1 and JNK2; assay: western blot of phosphorylated MAP kinases in cultured human corneal epithelium; type: cell-based; conditions: for phosphorylation of ERK1 and ERK2: 200 ng/ml factor vs serum-free control medium; for phosphorylation of ERK1 and ERK2 / phosphorylation of JNK1/2: human epithelial cells; for phosphorylation of JNK1/2: vs control
Description: (§4) In order to evaluate the effect of GDNF and other neurotrophic factors on the activation of signal transduction pathways in cultured corneal epithelial and stromal keratocytes, western blots were performed for detecting an accumulation of phosphorylated MAP kinases ERK and JNK in the presence of GDNF, NGF and BDNF. Human stromal keratocytes were cultured in RPMI 1640 medium containing L-glutamine (glutaMAX) or DMEM with 10% FBS for one day and starved in serum-free medium for another day. Cultures were then washed with PBS and incubated in serum-free DMEM without additives or with recombinant human GDNF (200 ng/ml), recombinant human NGF (200 ng/ml) and recombinant human BDNF (200 ng/ml) (all obtained from R & D Systems, Mineapolis, Minn., USA) for 30 min. Some cultures were incubated with an inhibitor of MAP kinases (PD 98059, Torcris Cookson Ballwin, Mo., USA) at 100 μM for 1 h prior to exposure to neurotrophines. After washing with PBS, culture cells were solubilized in lysis buffer containing 50 mM Tris-Cl (pH 8.0), 150 mM NaCl, 0.02% sodium azide, 100 μg/ml PMSF, 1% Triton X-100 and a mixture of several protein inhibitors (Complete®, Boehringer Mannheim) (one tablet/50 ml buffer). 50 μg total protein per lane was fractionated by a 10% STS-MOPS NUPAGE Bis-tris gel (NOVEX, San Diego, Calif., USA) and blotted onto nitrocellulose membrane. Membranes were stained with diluted polyclonal antibodies against ERK1, ERK2, JNK1 and JNK2 (Santa Cruz Biotechnology, Santa Cruz, Calif., USA). Also a polyclonal antibody was used which recognizes the […] form of either ERK1 and ERK2 which was raised against the catalytic core of the phosphorylated threonine residue 183 and tyrosine residue 185 of mammalian ERK2. Similarily, a polyclonal antibody recognizing the phosphorylated form of JNK1 and JNK2 was used (both from Promega). In the last step the membranes were visualized with the ECL western blot analysis system (Amersham).

[7] = system: ERK1, ERK2, JNK1 and JNK2; assay: western blot of phosphorylated MAP kinases in cultured human corneal stromal keratocytes; type: cell-based; conditions: for phosphorylation of ERK1 and ERK2: 200 ng/ml factor vs control; for phosphorylation of JNK1: vs serum-free medium
Description: as §4

T1 sequence (P07949 29-1114): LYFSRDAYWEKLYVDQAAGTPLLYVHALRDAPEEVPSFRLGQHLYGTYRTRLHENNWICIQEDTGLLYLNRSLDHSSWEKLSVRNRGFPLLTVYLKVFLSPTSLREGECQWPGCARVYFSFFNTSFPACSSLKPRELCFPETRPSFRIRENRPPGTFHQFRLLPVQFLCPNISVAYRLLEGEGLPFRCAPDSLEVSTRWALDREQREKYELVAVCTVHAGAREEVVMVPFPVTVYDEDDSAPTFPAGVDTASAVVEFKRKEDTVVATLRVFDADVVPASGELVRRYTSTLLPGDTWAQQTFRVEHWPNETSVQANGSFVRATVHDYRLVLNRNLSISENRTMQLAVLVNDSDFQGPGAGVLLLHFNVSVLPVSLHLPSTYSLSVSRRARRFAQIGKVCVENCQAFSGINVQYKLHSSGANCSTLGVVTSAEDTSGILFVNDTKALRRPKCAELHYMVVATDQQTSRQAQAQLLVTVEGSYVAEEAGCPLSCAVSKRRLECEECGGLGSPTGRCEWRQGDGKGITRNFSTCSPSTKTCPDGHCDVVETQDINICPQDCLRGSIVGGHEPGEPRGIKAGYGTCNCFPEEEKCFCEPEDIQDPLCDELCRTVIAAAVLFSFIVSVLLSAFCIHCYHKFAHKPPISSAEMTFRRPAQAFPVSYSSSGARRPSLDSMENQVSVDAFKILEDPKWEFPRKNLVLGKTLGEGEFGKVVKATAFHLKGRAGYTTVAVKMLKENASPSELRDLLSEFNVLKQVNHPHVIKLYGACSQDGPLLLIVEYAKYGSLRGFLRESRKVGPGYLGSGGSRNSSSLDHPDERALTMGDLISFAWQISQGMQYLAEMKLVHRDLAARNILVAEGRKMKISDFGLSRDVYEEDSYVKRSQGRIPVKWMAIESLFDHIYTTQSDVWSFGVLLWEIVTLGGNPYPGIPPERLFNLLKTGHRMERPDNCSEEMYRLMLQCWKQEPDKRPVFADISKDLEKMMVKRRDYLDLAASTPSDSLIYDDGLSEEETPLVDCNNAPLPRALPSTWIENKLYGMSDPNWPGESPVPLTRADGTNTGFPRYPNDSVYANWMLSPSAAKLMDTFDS

EGF: growth factor used as positive control at 10 ng/ml
total number of colonies [1]: 58±18 | gap in the cell monolayer filled ([2]; 10 ng/ml): 19.0%±8.6 | gap in the cell monolayer filled ([3]; 10 ng/ml): 44.6±9% | in vitro wound healing [4]: significant increase

CO[C@H]1[C@@H](OC)C[C@H](C)[C@@H](OC)C2=CC(=O)C=C(NC(=O)/C(C)=C/C=C\[C@H](OC)[C@@H](OC(N)=O)/C(C)=C/[C@@H]1C)C2=O [herbimycin A, reference compound]
GDNF-dependent tyrosine phosphorylation of Ret (Ret): specifically inhibited | GDNF-dependent phosphorylation of Erk [5]: significantly decreased | GDNF-dependent phosphorylation of FAK [5]: significantly decreased | GDNF-dependent phosphorylation of cRaf [5]: significantly decreased | wound gap closed (corneal epithelial cells): 19.2±5.5%

NGF: recombinant human NGF, neurotrophic factor used as comparison / positive control
phosphorylation of ERK1 and ERK2 [6]: increased | phosphorylation of JNK1/2 [6]: not induced | activated JNK2 [7]: not induced | phosphorylation of ERK1 and ERK2 [7]: induced | phosphorylation of JNK1 [7]: weakly induced | gap in the cell monolayer filled ([2]; 250 ng/ml): 19.6%±3.1 | gap in the cell monolayer filled ([3]; 250 ng/ml): 27%±7.1

COc1cccc(-c2cc(=O)c3ccccc3o2)c1N [PD 98059, reference compound]
effect on BDNF-induced phosphorylation of ERK1 and ERK2 ([6]; PD 98059 100 μM 1 h before BDNF 200 ng/ml, epithelial cells): not inhibited | effect on GDNF-induced phosphorylation of ERK1 and ERK2 ([6]; PD 98059 100 μM 1 h before GDNF 200 ng/ml, epithelial cells): prevented | effect on NGF-induced phosphorylation of ERK1 and ERK2 ([6]; PD 98059 100 μM 1 h before NGF 200 ng/ml, epithelial cells): prevented | effect on phosphorylation of ERK1 in presence of BDNF ([7]; PD 98059 with BDNF 200 ng/ml): remained unchanged | effect on GDNF-induced phosphorylation of ERK1 ([7]; PD 98059 with GDNF 200 ng/ml): inhibited | effect on NGF-induced phosphorylation of ERK1 ([7]; PD 98059 with NGF 200 ng/ml): inhibited

B1: BDNF: recombinant human BDNF, neurotrophic factor used for comparison (protein, UniProt P23560 19-247, looked up)
Neurotrophic factor BDNF …: APMKEANIRGQGGLAYPGVRTHGTLESVNGPKAGSRGLTSLADTFEHVIEELLDEDQKVRPNEENNKDADLYTSRVMLSSQVPLEPPLLFLLEEYKNYLDAANMSMRVRRHSDPARRGELSVCDSISEWVTAADKKTAVDMSGGTVTVLEKVPVSKGQLKQYFYETKCNPMGYTKEGCRGIDKRHWNSQCRTTQSYVRALTMDSKKRIGWRFIRIDTSCVCTLTIKRGR
phosphorylation of ERK1 and ERK2 [6]: increased | phosphorylation of JNK1/2 [6]: not induced | activated JNK2 [7]: not induced | phosphorylation of ERK1 and ERK2 [7]: did not induce | phosphorylation of JNK1 [7]: weakly induced
